In patent publication US11304956B2, “Use of 7-bromo-5-(O-chlorophenyl)-3-propoxy-1,2-dihydro-3H-1,4-benzodiazepin-2-one for inhibition of neuropathic pain and seizures of different etiology” (priority 2016, dated 2022):

How the values were obtained:
[1] = test system: thermal tail flick test in rats; test: Model of thermal stimulation (tail-flick); assay type: in vivo; details: n=10
Text: The problem was solved by experimental study of the antinociceptive action of the test compound 1 on the model of NP in rats and on the model of pain with the participation of central mechanisms, in particular, thermal tail flick test in rats. Based on the available data on the positive response of constant pain to anticonvulsants in the acute and paroxysmal phase and considering structure 1, we performed an evaluation of the anticonvulsant action of the compound on models of pentamethylenetetrazol-induced convulsions and seizures caused by maximal electroshock (MES). We have taken into account the possible side reaction (ulcerogenic effect) of the compound in experimental animals, expressed in the formation of defects in the mucous membrane of the gastrointestinal tract or in provocation of already existing peptic ulcer relapses. The probability of ulcers formation of medicinal origin is especially high during administration of non-steroidal anti-inflammatory drugs in high doses and in combination with their long-term use in the form of tablets.
A more pronounced effect was after parenteral administration (see Table 2). Control: solvent (twin, distilled water, pH-corrector). Results of the study of Compound 1 and ketorolac analgesic effects on the model of thermal stimulation (tail-flick) as degree of pain sensitivity threshold increase in relation to the initial level (%), n=10, are given in Table 2.

formalin test in mice = test: Formalin test (licking time of the injected paw); assay type: in vivo, white male non-linear mice; details: for I phase, % effect (decrease in the time of licking of the paw): phase 0-5 min; for II phase, effect (decrease in the time of licking of the paw): phase 15-40 min
[2] = test system: pentylenetetrazole-induced convulsions; test: Pentylenetetrazole-induced seizures; assay type: in vivo, non-linear male mice; details: Mus musculus, sc; mice; pentylenetetrazole 120 mg/kg subcutaneously; interval (0.83-0.97) printed on the next line; read-out: Anticonvulsive activity (ED50), Pentylenetetrazole
Text: (§1) In many cases, the presence of anticonvulsant (antiepileptic) effect of the compounds correlates with analgesic properties on corresponding models of neuralgia. As a general step is a primary screening of new anticonvulsant compounds on rodents with the help of pentylenetetrazole test and MES (maximal electroshock seizures) as they have a qualitative difference in development and manifestations of seizures. It is believed that the compound ability to prevent the MES-induced seizures is connected with impulse spread inhibition throughout the central nervous system. It is believed that the ability to prevent the MES-induced seizures development indicates the potential efficacy of the compound in the preventing propagation of a pulse along the neural tissue (see Tompson E. Medicines. Bioscreening/Under the editorship of A. V. Stefanova.-K.: Avitsenna, 1998.—250 p.).
The experiments were performed on non-linear male mice weighing 19-29 g. Pentylenetetrazole was administered subcutaneously in the cervical region of the back. […]
For MES-induced seizures experimental animals were exposed to electric stimulation through the corneal electrodes (50 Hz, 50 mA for mice during 0.2 s). The number of animals with the maximum tonic extension of the hind limbs, which occurs in almost 100% of the animals in the control group, was calculated. […]

MES-induced seizures = test: Maximal electroshock (MES) seizures; assay type: in vivo, non-linear male mice; details: Mus musculus; mice; corneal electrodes 50 Hz, 50 mA, 0.2 s; interval in brackets; read-out: Anticonvulsive activity (ED50), MES
Text: as §1
For MES-induced seizures experimental animals were exposed to electric stimulation through the corneal electrodes (50 Hz, 50 mA for mice during 0.2 s). The number of animals with the maximum tonic extension of the hind limbs, which occurs in almost 100% of the animals in the control group, was calculated. For the statistically significant determination of ED50, 3 doses of the test compound were used; the effect of each dose was studied in 6-8 animals.

gastric mucosa = test: Ulcerogenic effect, chronic experiment (28 days intragastric); assay type: in vivo, rats; details: 0.5 mg/kg intragastrally for 28 days, n = 14
Method: Evaluation of ulcerogenic action was carried out on a 4-score scale:
0 score—no damage; 0.5 score—hyperemia (blood vessels overflow)
1 score—single minor lesions (1-3 point hemorrhages or small ulcers)
2 score—multiple (more than 3) lesions (erosions, pinpoint hemorrhages) or 1 large ulcer
3 score—significant and massive damages (erosions, hemorrhages) of the gastric mucosa with significant size (diameter up to 4 mm)
4 score—gross injuries (massive hemorrhages, erosions, perforations) that cover the entire surface of the gastric mucosa.
The average multiplicity index of damage to the gastric mucosa (the number of ulcers per animal) and the severity of the damage (in scores) were determined.
(§2) To determine the safety of this compound in a chronic trial during long-term administration, it was administered to rats for 28 days at a dose close to ED50 by analgesic effect (0.5 mg/kg).
The data presented indicate that there is no serious damage to the stomach from the test compound, even when administered at very high doses, several orders higher than the average effective doses, and which are close to the upper limit of permitted doses that can be administered to rats once. Therefore, at the next stage it became reasonable to determine the effect of Compound 1 on the stomach after prolonged use (28 days) in an average effective dose of 0.5 mg/kg.

[3] = ED50 by analgesic effect (preliminary studies / literature data); assay type: in vivo; details: according to preliminary studies
Method: After oral administration of Compound 1 and ketorolac at a dose of 3 mg/kg (which is ED50 according to the literature data for ketorolac), the degree of analgesic effect of the compound exceeded the effect of reference drug both by strength and duration.
as §2

[4] = test system: acetic acid "writhing" test; details: intraperitoneal administration of acetic acid; earlier work of the applicants; cited from earlier work
[5] = 0.01 mg/kg intraperitoneally 40 min before formalin
[6] = 0.10 mg/kg intraperitoneally 40 min before formalin
[7] = 3.00 mg/kg intraperitoneally 40 min before formalin

CCCOC1N=C(c2ccccc2Cl)c2cc(Br)ccc2NC1=O (stereo not shown) [Compound 1, 7-bromo-5-(o-chlorophenyl)-3-propoxy-1,2-dihydro-3H-1,4-benzodiazepin-2-one]
Degree of pain sensitivity threshold increase in relation to the initial level ([1]; 0.5 mg/kg intraperitoneally, 1 hour): +27.4% | Degree of pain sensitivity threshold increase in relation to the initial level ([1]; 0.5 mg/kg intraperitoneally, 2 hours): +38.4% | Degree of pain sensitivity threshold increase in relation to the initial level ([1]; 0.5 mg/kg intraperitoneally, 4 hours): +42.3% | Degree of pain sensitivity threshold increase in relation to the initial level ([1]; 0.5 mg/kg intraperitoneally, 6 hours): +34.9% | Degree of pain sensitivity threshold increase in relation to the initial level ([1]; 0.5 mg/kg orally, 1 hour): +13.2% | Degree of pain sensitivity threshold increase in relation to the initial level ([1]; 0.5 mg/kg orally, 2 hours): +22.4% | Degree of pain sensitivity threshold increase in relation to the initial level ([1]; 0.5 mg/kg orally, 4 hours): +21.7% | Degree of pain sensitivity threshold increase in relation to the initial level ([1]; 0.5 mg/kg orally, 6 hours): +8.77% | Degree of pain sensitivity threshold increase in relation to the initial level ([1]; 3 mg/kg orally, 1 hour): +60.7% | Degree of pain sensitivity threshold increase in relation to the initial level ([1]; 3 mg/kg orally, 2 hours): +83.3% | Degree of pain sensitivity threshold increase in relation to the initial level ([1]; 3 mg/kg orally, 4 hours): +65.2% | Degree of pain sensitivity threshold increase in relation to the initial level ([1]; 3 mg/kg orally, 6 hours): +39.4% | I phase, % effect (decrease in the time of licking of the paw) (formalin test in mice; [5]): 15.00 ± 4.11% | II phase, effect (decrease in the time of licking of the paw) (formalin test in mice; [5]): 32.10 ± 10.10 | I phase, % effect (decrease in the time of licking of the paw) (formalin test in mice; [6]): 76.00 ± 6.50 % | II phase, effect (decrease in the time of licking of the paw) (formalin test in mice; [6]): 54.00 ± 8.60 | I phase, % effect (decrease in the time of licking of the paw) (formalin test in mice; [7]): 91.10 ± 18.80 % | II phase, effect (decrease in the time of licking of the paw) (formalin test in mice; [7]): 98.4 ± 15.0 | Activity in the first phase relative to diclofenac sodium (formalin test in mice; Compound 1 at 0.1 mg/kg vs diclofenac sodium at 10 mg/kg, first phase): 1.5 times | ED50 [2]: 0.91 mg/kg | ED50 (MES-induced seizures): 8.2 mg/kg | Number of animals with different degrees lesions of the gastric mucosa, score 1 (gastric mucosa): 4 | Number of animals with different degrees lesions of the gastric mucosa, score 3 (gastric mucosa): 0 | Number of animals with different degrees lesions of the gastric mucosa, score 4 (gastric mucosa): 0 | The multiplicity of damage (gastric mucosa): 0.5±0.23 | Average score (gastric mucosa; 4-score scale): 0.4±0.17 | ED50 [3]: 0.5 mg/kg | Analgesic activity in the "writhing" test [4]: high analgesic activity
